Measurements as given in ChEMBL document CHEMBL5303766, “Data for DCP probe FHT-2344” (2022).
The source made the active and inactive calls. The calls are words filed in the database; no cut-off is given here.

What was measured:
[1] = biological target: T1, Serine/threonine-protein kinase 17B (Homo sapiens) (UniProt O94768); assay: STK17B SGC Tm panel (DSF); conditions: for ΔTm: Compound concentration 10.0 uM
T1 sequence (whole entry): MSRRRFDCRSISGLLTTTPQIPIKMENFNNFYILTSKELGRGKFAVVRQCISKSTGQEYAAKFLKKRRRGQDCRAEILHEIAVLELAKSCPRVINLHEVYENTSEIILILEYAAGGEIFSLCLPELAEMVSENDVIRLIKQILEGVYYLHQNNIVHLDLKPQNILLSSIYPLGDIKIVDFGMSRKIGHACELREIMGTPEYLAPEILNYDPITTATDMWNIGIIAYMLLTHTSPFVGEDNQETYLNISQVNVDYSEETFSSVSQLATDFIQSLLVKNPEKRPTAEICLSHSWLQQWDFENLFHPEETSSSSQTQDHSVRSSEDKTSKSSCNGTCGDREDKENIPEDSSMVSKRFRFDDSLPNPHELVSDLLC

[2] = biological target: T2, Mitogen-activated protein kinase 13 (Homo sapiens) (UniProt O15264); assay: MAPK13 SGC Tm panel (DSF); conditions: for ΔTm: Compound concentration 10.0 uM
T2 sequence (whole entry): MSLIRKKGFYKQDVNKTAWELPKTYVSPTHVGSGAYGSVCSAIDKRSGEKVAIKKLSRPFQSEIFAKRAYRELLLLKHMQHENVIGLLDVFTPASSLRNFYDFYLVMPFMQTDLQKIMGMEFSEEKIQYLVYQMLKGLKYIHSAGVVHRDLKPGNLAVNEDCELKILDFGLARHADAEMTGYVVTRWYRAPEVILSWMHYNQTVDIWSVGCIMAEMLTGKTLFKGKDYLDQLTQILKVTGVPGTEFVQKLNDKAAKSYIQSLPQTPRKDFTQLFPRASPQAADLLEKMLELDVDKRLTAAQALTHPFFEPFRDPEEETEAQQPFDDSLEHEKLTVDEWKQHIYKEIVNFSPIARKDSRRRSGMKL

[3] = biological target: Ephrin type-A receptor 5 (Homo sapiens) (UniProt P54756); assay: EPHA5 SGC Tm panel (DSF); conditions: for ΔTm: Compound concentration 10.0 uM
[4] = biological target: 5-hydroxytryptamine receptor 3A (Homo sapiens) (UniProt P46098); conditions: Compound concentration 10.0 uM
[5] = biological target: Mitogen-activated protein kinase 8 (Homo sapiens) (UniProt P45983); assay: MAPK8 SGC Tm panel (DSF); conditions: for ΔTm: Compound concentration 10.0 uM
[6] = biological target: AP2-associated protein kinase 1 (Homo sapiens) (UniProt Q2M2I8); assay: AAK1 SGC Tm panel (DSF); conditions: for ΔTm: Compound concentration 10.0 uM
[7] = biological target: Alpha-2A adrenergic receptor (Homo sapiens) (UniProt P08913); conditions: Compound concentration 10.0 uM
[8] = biological target: Serine/threonine-protein kinase 10 (Homo sapiens) (UniProt O94804); assay: STK10 SGC Tm panel (DSF); conditions: for ΔTm: Compound concentration 10.0 uM
[9] = biological target: MAP/microtubule affinity-regulating kinase 3 (Homo sapiens) (UniProt P27448); assay: MARK3 SGC Tm panel (DSF); conditions: for ΔTm: Compound concentration 10.0 uM
[10] = biological target: Muscarinic acetylcholine receptor M5 (Homo sapiens) (UniProt P08912); conditions: Compound concentration 10.0 uM
[11] = biological target: T3, Serine/threonine-protein kinase 3 (Homo sapiens) (UniProt Q13188); assay: STK3 SGC Tm panel (DSF); conditions: for ΔTm: Compound concentration 10.0 uM
T3 sequence (whole entry): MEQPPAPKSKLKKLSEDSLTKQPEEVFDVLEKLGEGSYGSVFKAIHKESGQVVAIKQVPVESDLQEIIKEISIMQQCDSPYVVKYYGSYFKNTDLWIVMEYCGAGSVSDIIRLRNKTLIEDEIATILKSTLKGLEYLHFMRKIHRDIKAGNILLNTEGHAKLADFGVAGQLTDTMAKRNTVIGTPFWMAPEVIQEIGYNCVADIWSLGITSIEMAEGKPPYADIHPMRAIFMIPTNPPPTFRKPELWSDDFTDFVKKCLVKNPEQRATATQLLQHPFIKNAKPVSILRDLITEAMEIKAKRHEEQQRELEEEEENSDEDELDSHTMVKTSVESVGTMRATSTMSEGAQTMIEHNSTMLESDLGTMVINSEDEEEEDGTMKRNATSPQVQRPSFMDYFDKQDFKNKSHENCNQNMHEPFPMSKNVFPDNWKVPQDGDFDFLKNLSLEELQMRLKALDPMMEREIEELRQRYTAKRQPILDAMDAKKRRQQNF

[12] = biological target: SWI/SNF-related matrix-associated actin-dependent regulator of chromatin subfamily A member 4 (Homo sapiens, UniProt P51532); assay: Luciferase reporter assay: SMARCA4 transcriptional activity in a SMARCA2-mutant cell line; format: functional
[13] = biological target: SRSF protein kinase 3 (Homo sapiens) (UniProt Q9UPE1); assay: MSSK1 SGC Tm panel (DSF); conditions: for ΔTm: Compound concentration 10.0 uM
[14] = biological target: SRSF protein kinase 1 (Homo sapiens) (UniProt Q96SB4); assay: SRPK1 SGC Tm panel (DSF); conditions: for ΔTm: Compound concentration 10.0 uM
[15] = biological target: STE20/SPS1-related proline-alanine-rich protein kinase (Homo sapiens) (UniProt Q9UEW8); assay: STK39 SGC Tm panel (DSF); conditions: for ΔTm: Compound concentration 10.0 uM
[16] = biological target: Bromodomain-containing protein 4 (Homo sapiens) (UniProt O60885); assay: BRD4 SGC Tm panel (DSF); conditions: for ΔTm: Compound concentration 10.0 uM
[17] = biological target: Mu-type opioid receptor (Homo sapiens) (UniProt P35372); conditions: Compound concentration 10.0 uM
[18] = biological target: Histamine H1 receptor (Homo sapiens) (UniProt P35367); conditions: Compound concentration 10.0 uM
[19] = biological target: Mitogen-activated protein kinase 10 (Homo sapiens) (UniProt P53779); assay: MAPK10 SGC Tm panel (DSF); conditions: for ΔTm: Compound concentration 10.0 uM
[20] = biological target: Ribosomal protein S6 kinase alpha-1 (Homo sapiens) (UniProt Q15418); assay: RPS6KA1 SGC Tm panel (DSF); conditions: for ΔTm: Compound concentration 10.0 uM
Sequence of Ribosomal protein S6 kinase alpha-1 (Homo sapiens) (Q15418 whole entry): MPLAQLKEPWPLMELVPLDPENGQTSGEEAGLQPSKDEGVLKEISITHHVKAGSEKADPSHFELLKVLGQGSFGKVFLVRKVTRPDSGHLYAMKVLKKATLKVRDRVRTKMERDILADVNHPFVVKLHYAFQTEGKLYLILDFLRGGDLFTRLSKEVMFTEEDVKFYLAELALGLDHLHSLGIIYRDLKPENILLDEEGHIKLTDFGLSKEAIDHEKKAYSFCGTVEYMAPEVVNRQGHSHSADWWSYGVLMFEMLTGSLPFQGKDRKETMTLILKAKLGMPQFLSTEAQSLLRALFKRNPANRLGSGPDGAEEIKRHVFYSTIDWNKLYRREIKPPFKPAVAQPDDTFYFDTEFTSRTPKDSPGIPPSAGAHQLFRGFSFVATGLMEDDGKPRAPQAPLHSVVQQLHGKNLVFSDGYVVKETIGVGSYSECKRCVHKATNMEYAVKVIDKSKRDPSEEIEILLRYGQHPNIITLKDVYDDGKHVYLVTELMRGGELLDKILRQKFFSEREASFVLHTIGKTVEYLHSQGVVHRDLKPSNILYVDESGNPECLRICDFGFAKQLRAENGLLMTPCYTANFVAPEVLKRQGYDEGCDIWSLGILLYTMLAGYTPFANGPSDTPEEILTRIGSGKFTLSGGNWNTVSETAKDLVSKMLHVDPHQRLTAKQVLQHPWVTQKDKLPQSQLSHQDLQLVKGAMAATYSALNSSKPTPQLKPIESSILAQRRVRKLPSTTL

Sequence of SRSF protein kinase 1 (Homo sapiens) (Q96SB4 whole entry): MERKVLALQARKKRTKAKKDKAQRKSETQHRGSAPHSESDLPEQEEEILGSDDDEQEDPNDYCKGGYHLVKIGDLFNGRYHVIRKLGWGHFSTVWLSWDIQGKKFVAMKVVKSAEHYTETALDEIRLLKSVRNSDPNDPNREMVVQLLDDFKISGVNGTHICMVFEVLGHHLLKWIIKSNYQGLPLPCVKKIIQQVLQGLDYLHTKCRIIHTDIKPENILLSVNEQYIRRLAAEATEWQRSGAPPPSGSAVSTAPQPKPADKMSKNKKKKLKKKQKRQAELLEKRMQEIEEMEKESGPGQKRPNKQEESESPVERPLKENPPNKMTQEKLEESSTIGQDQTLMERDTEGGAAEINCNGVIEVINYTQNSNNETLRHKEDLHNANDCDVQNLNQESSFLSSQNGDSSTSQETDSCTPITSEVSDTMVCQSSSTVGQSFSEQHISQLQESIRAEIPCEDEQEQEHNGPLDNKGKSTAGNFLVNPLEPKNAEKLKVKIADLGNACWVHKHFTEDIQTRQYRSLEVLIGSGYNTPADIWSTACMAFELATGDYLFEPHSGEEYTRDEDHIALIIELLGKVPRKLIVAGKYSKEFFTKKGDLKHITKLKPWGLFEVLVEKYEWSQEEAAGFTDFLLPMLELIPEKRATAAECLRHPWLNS
Sequence of Mitogen-activated protein kinase 8 (Homo sapiens) (P45983 whole entry): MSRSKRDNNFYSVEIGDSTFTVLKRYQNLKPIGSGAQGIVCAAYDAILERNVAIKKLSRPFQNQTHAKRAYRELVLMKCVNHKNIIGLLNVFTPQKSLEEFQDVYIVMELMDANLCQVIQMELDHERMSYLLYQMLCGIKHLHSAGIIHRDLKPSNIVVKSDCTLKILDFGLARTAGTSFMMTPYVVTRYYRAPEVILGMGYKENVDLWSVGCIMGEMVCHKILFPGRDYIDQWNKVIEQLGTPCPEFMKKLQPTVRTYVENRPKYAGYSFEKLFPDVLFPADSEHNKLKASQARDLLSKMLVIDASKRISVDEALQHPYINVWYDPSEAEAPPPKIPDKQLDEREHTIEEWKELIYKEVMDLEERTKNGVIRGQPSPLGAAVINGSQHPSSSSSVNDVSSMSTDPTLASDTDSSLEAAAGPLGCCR
Sequence of Mitogen-activated protein kinase 10 (Homo sapiens) (P53779 whole entry): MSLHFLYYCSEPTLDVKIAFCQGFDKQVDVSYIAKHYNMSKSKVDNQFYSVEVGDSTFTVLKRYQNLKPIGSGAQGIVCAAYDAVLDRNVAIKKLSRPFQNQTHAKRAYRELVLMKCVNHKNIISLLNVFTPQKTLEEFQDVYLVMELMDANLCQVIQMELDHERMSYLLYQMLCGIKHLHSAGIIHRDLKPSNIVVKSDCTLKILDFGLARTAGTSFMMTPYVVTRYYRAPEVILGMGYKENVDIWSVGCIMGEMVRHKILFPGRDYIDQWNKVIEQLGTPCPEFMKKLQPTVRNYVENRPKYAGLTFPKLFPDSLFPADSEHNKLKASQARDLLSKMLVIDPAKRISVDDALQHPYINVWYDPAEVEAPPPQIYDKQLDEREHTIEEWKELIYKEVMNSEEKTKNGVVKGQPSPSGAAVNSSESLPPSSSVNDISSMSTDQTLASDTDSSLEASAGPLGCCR
Sequence of SRSF protein kinase 3 (Homo sapiens) (Q9UPE1 whole entry): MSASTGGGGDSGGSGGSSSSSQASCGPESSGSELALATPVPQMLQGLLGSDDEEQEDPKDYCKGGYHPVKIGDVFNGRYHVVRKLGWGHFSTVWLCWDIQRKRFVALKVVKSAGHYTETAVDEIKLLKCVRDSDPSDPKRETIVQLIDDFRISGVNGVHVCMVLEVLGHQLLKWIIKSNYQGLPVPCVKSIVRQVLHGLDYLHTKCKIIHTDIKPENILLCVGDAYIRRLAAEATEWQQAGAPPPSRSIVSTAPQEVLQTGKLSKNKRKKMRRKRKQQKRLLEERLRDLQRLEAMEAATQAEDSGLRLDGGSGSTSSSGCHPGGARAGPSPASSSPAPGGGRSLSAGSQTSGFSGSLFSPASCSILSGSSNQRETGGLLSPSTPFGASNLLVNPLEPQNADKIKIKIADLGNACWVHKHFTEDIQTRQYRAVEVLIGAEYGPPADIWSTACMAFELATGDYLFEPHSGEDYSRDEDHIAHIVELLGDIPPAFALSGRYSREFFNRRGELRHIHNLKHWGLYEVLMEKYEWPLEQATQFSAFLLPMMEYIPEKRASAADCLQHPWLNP
Sequence of AP2-associated protein kinase 1 (Homo sapiens) (Q2M2I8 whole entry, looked up): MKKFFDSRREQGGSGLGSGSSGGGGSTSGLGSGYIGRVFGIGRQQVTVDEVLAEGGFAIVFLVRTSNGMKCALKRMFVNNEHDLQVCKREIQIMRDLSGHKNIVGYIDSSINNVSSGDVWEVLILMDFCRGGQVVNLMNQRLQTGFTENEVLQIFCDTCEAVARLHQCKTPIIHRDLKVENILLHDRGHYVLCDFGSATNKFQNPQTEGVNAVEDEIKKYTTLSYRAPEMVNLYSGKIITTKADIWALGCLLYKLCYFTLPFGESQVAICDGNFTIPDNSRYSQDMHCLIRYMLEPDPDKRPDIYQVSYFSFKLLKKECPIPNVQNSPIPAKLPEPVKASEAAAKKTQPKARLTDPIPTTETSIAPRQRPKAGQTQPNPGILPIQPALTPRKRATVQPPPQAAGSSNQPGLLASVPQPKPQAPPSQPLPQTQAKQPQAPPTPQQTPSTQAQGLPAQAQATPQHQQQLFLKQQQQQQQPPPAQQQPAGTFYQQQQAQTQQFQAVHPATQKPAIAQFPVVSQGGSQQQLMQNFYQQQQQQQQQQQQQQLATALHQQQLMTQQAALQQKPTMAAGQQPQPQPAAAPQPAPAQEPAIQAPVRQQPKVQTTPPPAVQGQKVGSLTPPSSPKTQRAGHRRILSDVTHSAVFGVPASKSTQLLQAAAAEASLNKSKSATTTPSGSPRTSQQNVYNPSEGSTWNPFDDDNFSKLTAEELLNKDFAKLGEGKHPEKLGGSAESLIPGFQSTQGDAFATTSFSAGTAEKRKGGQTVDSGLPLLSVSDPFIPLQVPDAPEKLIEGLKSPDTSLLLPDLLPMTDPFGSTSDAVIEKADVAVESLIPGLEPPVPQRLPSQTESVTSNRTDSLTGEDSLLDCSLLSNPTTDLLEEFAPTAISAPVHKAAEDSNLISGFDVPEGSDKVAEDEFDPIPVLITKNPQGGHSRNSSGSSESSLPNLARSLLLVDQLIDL
Sequence of Ephrin type-A receptor 5 (Homo sapiens) (P54756 whole entry): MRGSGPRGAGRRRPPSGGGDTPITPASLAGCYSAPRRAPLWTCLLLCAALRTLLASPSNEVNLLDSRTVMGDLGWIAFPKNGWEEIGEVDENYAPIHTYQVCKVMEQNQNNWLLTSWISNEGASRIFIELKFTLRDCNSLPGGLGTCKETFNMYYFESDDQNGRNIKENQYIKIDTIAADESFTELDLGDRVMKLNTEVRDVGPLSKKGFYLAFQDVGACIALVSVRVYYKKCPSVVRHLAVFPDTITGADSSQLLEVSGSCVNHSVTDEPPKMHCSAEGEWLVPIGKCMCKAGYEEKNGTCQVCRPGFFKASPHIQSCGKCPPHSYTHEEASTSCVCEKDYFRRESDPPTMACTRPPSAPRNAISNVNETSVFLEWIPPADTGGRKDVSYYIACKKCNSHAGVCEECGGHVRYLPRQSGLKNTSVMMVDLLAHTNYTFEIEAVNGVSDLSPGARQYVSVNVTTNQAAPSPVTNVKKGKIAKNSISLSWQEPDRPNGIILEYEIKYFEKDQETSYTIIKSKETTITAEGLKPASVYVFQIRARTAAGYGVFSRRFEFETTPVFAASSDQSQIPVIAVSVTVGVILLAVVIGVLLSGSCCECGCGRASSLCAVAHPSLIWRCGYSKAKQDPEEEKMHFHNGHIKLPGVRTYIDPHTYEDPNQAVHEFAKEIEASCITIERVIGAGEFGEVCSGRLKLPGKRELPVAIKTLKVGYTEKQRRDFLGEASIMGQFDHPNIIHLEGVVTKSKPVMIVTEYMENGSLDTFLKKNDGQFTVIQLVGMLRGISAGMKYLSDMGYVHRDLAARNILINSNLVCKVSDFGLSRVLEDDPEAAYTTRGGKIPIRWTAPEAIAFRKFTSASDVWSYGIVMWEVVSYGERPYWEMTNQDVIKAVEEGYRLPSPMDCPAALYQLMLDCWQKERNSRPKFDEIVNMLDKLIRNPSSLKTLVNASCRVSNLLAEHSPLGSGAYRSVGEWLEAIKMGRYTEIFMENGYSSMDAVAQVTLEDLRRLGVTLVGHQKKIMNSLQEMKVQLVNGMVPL

| Structure (SMILES) | delta Tm Staurosporine positive control [1] | ΔTm [1] | delta Tm Staurosporine positive control [2] | ΔTm [2] | delta Tm Staurosporine positive control [3] | ΔTm [3] | inhibition [4] | delta Tm Staurosporine positive control [5] | ΔTm [5] | delta Tm Staurosporine positive control [6] | ΔTm [6] | inhibition [7] | delta Tm Staurosporine positive control [8] | ΔTm [8] | delta Tm Staurosporine positive control [9] | ΔTm [9] | inhibition [10] | delta Tm Staurosporine positive control [11] | ΔTm [11] | IC50 [12] | further results |
| --- | --- | --- | --- | --- | --- | --- | --- | --- | --- | --- | --- | --- | --- | --- | --- | --- | --- | --- | --- | --- | --- |
| C[C@H](NC(=O)c1cn(C2(C#N)CC2)cn1)C(=O)Nc1nc(-c2cccc(-c3ccn(C)n3)c2)cs1 | 10 | -12.2 | 6.96 | 0.161 | 8.98 | 0.273 | 3.44% | 7.87 | 0.458 | 11.6 | 0.0243 | 10.5% | 22.7 | 0.554 | 19.1 | 1.73 | 4.67% | 15.5 | 0.324 | 2370 nM (not active) | delta Tm Staurosporine positive control [13]: 3.67; ΔTm [13]: 0.0986; delta Tm Staurosporine positive control [14]: 7.14; ΔTm [14]: 0.0203; delta Tm Staurosporine positive control [15]: 8.57; ΔTm [15]: 0.258; delta Tm Staurosporine positive control [16]: 1.03; ΔTm [16]: -0.303; inhibition [17]: 8.54%; inhibition [18]: 12.5%; delta Tm Staurosporine positive control [19]: 7.41; ΔTm [19]: 1.8; delta Tm Staurosporine positive control [20]: 3.76; ΔTm [20]: 0.223 |
| COC[C@H](NC(=O)c1ccn(S(C)(=O)=O)c1)C(=O)Nc1nc(-c2cccc(-c3ccn(C)n3)c2)cs1 | 10 | -0.114 | 6.96 | 0.221 | 8.98 | 0.13 | 5.62% | 7.87 | 0.206 | 11.6 | -0.00871 | 5.84% | 22.7 | 0.244 | 19.1 | 1.12 | 0.52% | 15.5 | 1.34 | 30.2 nM (active) | delta Tm Staurosporine positive control [13]: 3.67; ΔTm [13]: 0.376; delta Tm Staurosporine positive control [14]: 7.14; ΔTm [14]: 0.728; delta Tm Staurosporine positive control [15]: 8.57; ΔTm [15]: 0.181; delta Tm Staurosporine positive control [16]: 1.03; ΔTm [16]: -0.843; inhibition [17]: 18.8%; inhibition [18]: 1.95%; delta Tm Staurosporine positive control [19]: 7.41; ΔTm [19]: 0.595; delta Tm Staurosporine positive control [20]: 3.76; ΔTm [20]: 0.166 |
